# Tests used:
# [1] = tested on: PBMCs from healthy HCV-seronegative blood donors; assay type: cell-based, human; details: of 12 healthy donors
# [2] = tested on: PBMCs of patients with chronic HCV infection; assay type: cell-based, human; details: HCV core 178 stimulation; result in words
# [3] = tested on: CTLs in the peripheral blood of patients with chronic HCV infection; details: cited from earlier work
# [4] = after stimulation with HCV core 178
sequence,measurement,setting,value
LLALLSCLTV [HCV core 178],blood donors with induced HCV core 178–specific CTLs,"[1]; 10 μg/ml peptide, four replica cultures, 5 wk stimulation",nine
same,individuals recognizing HCV core 178 and CYP2A7 8–17,[1]; [4],three
same,individuals recognizing HCV core 178 only,[1]; [4],four
same,individuals without CTL response,[1]; [4],three
same,percentage of patients having cross-reactive CTLs compared with healthy donors,[2],comparable to that of healthy donors
same,processing and presentation of the peptide,[3],processed and presented via the endogenous MHC class I pathway
same,recognition by CTLs in patients with chronic HCV infection,[3]; peripheral blood,target epitope for CTLs

# From paper PMC2195568 (The Journal of Experimental Medicine, 1999)
